Data on 34 compounds can be found in US7163952B2, “Azole compound and medicinal use thereof” (Japan Tobacco Inc., priority 2001, dated 2007).

Structures are written as SMILES.

By melting point is commonly meant the temperature, or range, at which the solid turns liquid. For the compound `CC(C)N(Cc1ccc(C(=O)O)cc1)c1nc(-c2ccc(NC(=O)c3ccc(C4CCCCC4)cc3)cc2)cs1` [Example 61, 4-((N-(4-(4-(4-cyclohexylbenzoylamino)phenyl)-2-thiazolyl)-N-isopropylamino)methyl)benzoic acid], the melting point is 250 °C (dec.).

Compound `CN(CCc1ccc(N2CCOCC2)cc1)c1ccc(-c2csc(N(C)Cc3ccc(C(=O)O)cc3)n2)cc1` [Example 238, 4-((N-methyl-N-(4-(4-(N-methyl-N-(2-(4-morpholinophenyl)ethyl)amino)phenyl)-2-thiazolyl)amino)methyl)benzoic acid] showed a melting point of 212 to 213 °C.

In turn, `CN(Cc1ccc(C(=O)O)cc1)c1nc(-c2ccc(OCc3ccc(C4CCCCC4)cc3)cc2)cs1.O=S(=O)(O)O` had a melting point of 182 to 183 °C.

For `CC1CCN(c2ccc(C(=O)Nc3ccc(-c4csc(N(c5ccc(C(=O)O)cc5)C(C)C)n4)cc3)cc2)CC1.Cl`, the melting point is 230 °C (dec.).

`O=C(O)c1ccc(N(CC2CCCCC2)c2nc(-c3nc4ccc(OCc5ccc(F)c(F)c5)cc4o3)cs2)cc1` [Example 190, 4-(N-cyclohexylmethyl-N-(4-(6-(3,4-difluorobenzyloxy)-2-benzooxazolyl)-2-thiazolyl)amino)benzoic acid] had a melting point of 228 to 230 °C.

`CN(Cc1ccc(C2CCC(C)(C)CC2)cc1)c1ccc(-c2csc(N(C)Cc3ccc(C(=O)[O-])cc3)n2)cc1.[Na+]` [Example 216, sodium 4-((N-(4-(4-(N-(4-(4,4-dimethylcyclohexyl)benzyl)-N-methylamino)phenyl)-2-thiazolyl)-N-methylamino)methyl)benzoate] yielded a melting point of 230 °C.

As to `O=C(O)c1ccc(COc2ccc(-c3csc(Cc4ccc(C(=O)O)cc4)n3)cc2)cc1` [Example 49, 4-(4-(4-(4-carboxybenzyloxy)phenyl)-2-thiazolylmethyl)benzoic acid], the melting point was 270 °C (dec.).

Turning to `O=C(O)c1ccc(C2(c3nc(-c4ccc(OCc5ccc(C6CCCCC6)cc5)cc4)cs3)CCOCC2)cc1` [Example 101, 4-(4-(4-(4-(4-cyclohexylbenzyloxy)phenyl)-2-thiazolyl)tetrahydropyran-4-yl)benzoic acid], the melting point is 230 °C (dec.).

Turning to `O=C(O)c1ccc(CN(CC2CCCCC2)c2nc(-c3ccc(N(Cc4ccc(Cl)c(Cl)c4)Cc4ccc(Cl)c(Cl)c4)cc3)cs2)cc1` [Example 117, 4-((N-(4-(4-(bis(3,4-dichlorobenzyl)amino)phenyl)-2-thiazolyl)-N-cyclohexylmethylamino)methyl)benzoic acid], the melting point is 120 °C (dec.).

`CC(C)(c1ccc(C(=O)O)cc1)c1nc(-c2cc(Cl)ccc2OCc2ccccc2)cs1` [Example 149, 4-(1-(4-(2-benzyloxy-5-chlorophenyl)-2-thiazolyl)-1-methylethyl)benzoic acid]: the melting point lay within 152 to 154 °C.

Compound `CN(Cc1ccc([C@H]2CCC[C@H](O)C2)cc1)c1ccc(-c2csc(N(C)Cc3ccc(C(=O)O)cc3)n2)cc1` (relative stereo) [Example 206, trans-4-((N-(4-(4-(N-(4-(3-hydroxycyclohexyl)benzyl)-N-methylamino)phenyl)-2-thiazolyl)-N-methylamino)methyl)benzoic acid] displayed a melting point of 159 to 161 °C.

For `COc1ccc(OCc2ccc(C3CCCCC3)cc2)c(-c2csc(Nc3ccc(C(=O)O)cc3)n2)c1` [Example 157, 4-(4-(2-(4-cyclohexylbenzyloxy)-5-methoxyphenyl)-2-thiazolylamino)benzoic acid], the melting point was 230 to 234 °C.

In turn, `CCOC(=O)c1ccc(CN(C)c2nc(-c3ccc(OCc4ccc(C5CCCCC5)cc4)cc3)cs2)cc1` [Example 249, ethyl 4-((N-(4-(4-(4-cyclohexylbenzyloxy)phenyl)-2-thiazolyl)-N-methylamino)methyl)benzoate] showed a melting point of 117 to 118 °C.

With `CN(Cc1ccc(C(=O)O)cc1)c1nc(-c2cc(Cl)ccc2OCc2ccccc2)cs1` [Example 163, 4-((N-(4-(2-benzyloxy-5-chlorophenyl)-2-thiazolyl)-N-methylamino)methyl)benzoic acid], the melting point was 169 to 171 °C.

As to `O=C(O)c1ccc(CN(CCC2CCCCC2)c2nc(-c3cc(Cl)ccc3OCc3ccccc3)cs2)cc1` [Example 164, 4-((N-(4-(2-benzyloxy-5-chlorophenyl)-2-thiazolyl)-N-(2-cyclohexylethyl)amino)methyl)benzoic acid], the melting point is 158 to 160 °C.

In the case of `O=C(O)c1ccc(N(Cc2ccc(Cl)c(Cl)c2)c2nc(-c3cc(Cl)ccc3OCc3ccccc3)cs2)cc1` [Example 167, 4-(N-(4-(2-benzyloxy-5-chlorophenyl)-2-thiazolyl)-N-(3,4-dichlorobenzyl)amino)benzoic acid], the melting point is 196 to 198 °C.

As to `CC(C)N(c1ccc(C(=O)O)cc1)c1nc(-c2ccc(NC(=O)c3ccccc3)cc2)cs1` [Example 9, 4-(N-(4-(4-benzoylaminophenyl)-2-thiazolyl)-N-isopropylamino)benzoic acid], the melting point was in the range of 234 to 236 °C.

For the compound `CC(C)N(c1ccc(C(=O)O)cc1)c1nc(-c2ccc(NC(=O)c3ccc(N4C[C@@H](C)O[C@@H](C)C4)cc3)cc2)cs1.Cl`, the melting point was 230 °C (dec.).

The compound `O=C(O)c1ccc(N(CC2CCCCC2)c2nc(-c3cc(Cl)ccc3OCc3ccccc3)cs2)cc1` [Example 160, 4-(N-(4-(2-benzyloxy-5-chlorophenyl)-2-thiazolyl)-N-cyclohexylmethylamino)benzoic acid] yielded a melting point of 184 to 185 °C.

On to `O=C(O)c1ccc(Nc2nc(-c3ccc(OCc4ccc(Cl)c(Cl)c4)cc3)cs2)cc1` [Example 94, 4-(4-(4-(3,4-dichlorobenzyloxy)phenyl)-2-thiazolylamino)benzoic acid], for which the melting point was 230 °C (dec.).

The compound `O=C(O)c1ccc(CN(CC2CCCCC2)c2nc(-c3nc4ccc(OCCc5ccccc5)cc4o3)cs2)cc1` [Example 221, 4-((N-cyclohexylmethyl-N-(4-(6-phenethyloxy-2-benzooxazolyl)-2-thiazolyl)amino)methyl)benzoic acid] had a melting point of 105 to 108 °C.

On to `CN(Cc1ccc(C(=O)O)cc1)c1nc(-c2ccc(N(C)Cc3ccc(C4CCCCC4)cc3)c(Cl)c2)cs1` [Example 242, 4-((N-(4-(3-chloro-4-(N-(4-cyclohexylbenzyl)-N-methylamino)phenyl)-2-thiazolyl)-N-methylamino)methyl)benzoic acid], for which the melting point was in the range of 149 to 150 °C.

Consider `O=C(O)c1ccc(Cc2nc(-c3ccc(OCc4ccc(C5CCCCC5)cc4)cc3)cs2)cc1` [Example 48, 4-(4-(4-(4-cyclohexylbenzyloxy)phenyl)-2-thiazolylmethyl)benzoic acid], for which the melting point is 235 to 238 °C.

`CC(C)N(c1ccc(C(=O)O)cc1)c1nc(-c2nc3ccc(OCc4ccc(Cl)c(Cl)c4)cc3o2)cs1` [Example 183, 4-(N-(4-(6-(3,4-dichlorobenzyloxy)-2-benzooxazolyl)-2-thiazolyl)-N-isopropylamino)benzoic acid] came in with a melting point of 230 °C.

In the case of `CC(=O)N1CCC(c2ccc(CN(C)c3ccc(-c4csc(N(C)Cc5ccc(C(=O)O)cc5)n4)cc3)cc2)CC1` [Example 211, 4-((N-(4-(4-(N-(4-(1-acetylpiperidin-4-yl)benzyl)-N-methylamino)phenyl)-2-thiazolyl)-N-methylamino)methyl)benzoic acid], the melting point lay in the range of 208 to 210 °C.

`CC(C)N(c1ccc(OCC(=O)O)cc1)c1nc(-c2ccc(NC(=O)c3cc(Cl)cc(Cl)c3)cc2)cs1` [Example 56, (4-(N-(4-(4-(3,5-dichlorobenzoylamino)phenyl)-2-thiazolyl)-N-isopropylamino)phenoxy)acetic acid] yielded a melting point of 192 to 194 °C.

On to `O=C(O)CCCN(c1ccc(C(=O)O)cc1)c1nc(-c2ccc(OCc3ccc(C4CCCCC4)cc3)cc2)cs1` [Example 26, 4-(N-(3-carboxypropyl)-N-(4-(4-(4-cyclohexylbenzyloxy)phenyl)-2-thiazolyl)amino)benzoic acid], for which the melting point is 230 °C (dec.).

As for `O=C(O)c1ccc(N(CC2CCCCC2)c2nc(-c3ccc(NCc4ccc(C(F)(F)F)cc4)cc3)cs2)cc1` [Example 134, 4-(N-cyclohexylmethyl-N-(4-(4-(4-trifluoromethylbenzylamino)phenyl)-2-thiazolyl)amino)benzoic acid], the melting point fell in the range of 199 to 203 °C.

Take `CC(C)N(c1ccc(C(=O)O)cc1)c1nc(-c2ccc(NC(=O)c3ccc(N4CCOCC4)cc3)cc2)cs1.Cl`: the melting point was 230 °C (dec.).

`CN(Cc1ccc([C@H]2CCC[C@@H](O)C2)cc1)c1ccc(-c2csc(N(C)Cc3ccc(C(=O)O)cc3)n2)cc1` (relative stereo) [Example 205, cis-4-((N-(4-(4-(N-(4-(3-hydroxycyclohexyl)benzyl)-N-methylamino)phenyl)-2-thiazolyl)-N-methylamino)methyl)benzoic acid] returned a melting point of 220 °C.

In turn, `CC(=O)OCOC(=O)c1ccc(CN(C)c2nc(-c3ccc(OCc4ccc(C5CCCCC5)cc4)cc3)cs2)cc1` [Example 270, acetoxymethyl 4-((N-(4-(4-(4-cyclohexylbenzyloxy)phenyl)-2-thiazolyl)-N-methylamino)methyl)benzoate] showed a melting point of 100 to 104 °C.

In turn, `O=C(O)c1ccc(CN(CCC2CCCCC2)c2nc(-c3cc(Cl)ccc3OCc3ccc(C(F)(F)F)cc3)cs2)cc1` [Example 165, 4-((N-(4-(5-chloro-2-(4-trifluoromethylbenzyloxy)phenyl)-2-thiazolyl)-N-(2-cyclohexylethyl)amino)methyl)benzoic acid] registered a melting point of 171 to 172 °C.

For `CC(C)Oc1ccc(C(=O)Nc2ccc(-c3csc(Cc4ccc(C(=O)O)cc4)n3)cc2)cc1` [Example 69, 4-(4-(4-(4-isopropoxybenzoylamino)phenyl)-2-thiazolylmethyl)benzoic acid], the melting point was 230 °C (dec.).

`CN(Cc1ccc(C(=O)O)cc1)c1nc(-c2ccc(N(C)Cc3ccc(C(C)(C)C)cc3)c(Cl)c2)cs1` [Example 244, 4-((N-(4-(4-(N-(4-tert-butylbenzyl)-N-methylamino)-3-chlorophenyl)-2-thiazolyl)-N-methylamino)methyl)benzoic acid] displayed a melting point of 153 to 154 °C.
